Measured values from patent US20190300885A1, “A NOVEL ROLE FOR TERMINAL RNA URIDYLATION AND RNA TURNOVER IN ONCOGENESIS” (Children's Medical Center Corporation, priority 2016, published 2019).
Entries after “also recorded” stand apart in the source; their conditions may differ.

How the values were obtained:
HCT116 cells [1] = assay: Growth curves of wild-type vs ZCCHC6 knockout HCT116 cells under increasing drug concentrations; assay type: cell-based, human; details: HCT116, CRISPR/Cas9 ZCCHC6 knockout (KO) vs GFP-sgRNA control (WT)
Source text: FIGS. 5A-5B. TUTase loss sensitizes cancer cells to disruption of RNA metabolism. […] Error bars indicate SEM (n=3); *P<0.05, **P<0.01.
Given the observed phenotypes, whether there are conditions that specifically sensitize cancer cells to TUTase loss was examined. In particular, since TUTases have been associated with RNA turnover, it was surmised that they may play an especially important role in the context of perturbed RNA metabolism. To address this hypothesis, small molecule agents that are known to cause DNA/RNA damage and thus impair RNA quality (doxorubicin, cisplatin, etoposide), as well as ones that inhibit nucleotide synthesis and thereby limit the pool of available nucleotides in the cell (5-fluorouracil and hydroxyurea) were selected, and wild-type and ZCCHC6 knockout HCT116 cells were treated with increasing concentrations of each agent (FIG. 5A). […] 5-FU has been specifically shown to target the RNA exosome complex, which may explain its differential activity from hydroxyurea in the experiments.

HCT116 cells [2] = assay: Growth/viability of wild-type vs TUTase knockout HCT116 cells under increasing bortezomib concentrations; assay type: cell-based, human; details: HCT116, ZCCHC6 knockout vs WT
Source text: FIG. 16. TUTase loss has a downstream impact on protein turnover. Top, the relative rates of global mRNA translation as measured by the OP-Puromycin fluorescent assay are shown. siNC=negative control siRNA; siZ6=siZCCHC6. Error bars indicate SEM (n=3); *P<0.05. Bottom, growth curves of HCT116 cells after CRISPR/Cas9-mediated knockout using a ZCCHC6-targeting sgRNA (KO) or a GFP-targeting control sgRNA (WT) under treatment with different concentrations of bortezomib are shown.
Given that TUTases affect mRNA turnover, it was also surmised that they may have a downstream effect on protein turnover. To address this hypothesis, the global rate of translation in TUTase knockdown versus control HCT116 cells was measured using the OP-Puromycin method. […] In addition, we treated wild-type and TUTase knockout HCT116 cells with increasing concentrations of bortezomib, an inhibitor of the proteasome and thus protein decay (FIG. 16).

SMILES | differential dose-dependent growth response of ZCCHC6 knockout vs wild-type cells (HCT116 cells [1]) | effect on cell viability in TUTase knockout vs wild-type cells (HCT116 cells [2])
O=c1[nH]cc(F)c(=O)[nH]1 [5-fluorouracil] | reproducibly stronger effect on the knockout cells; also recorded: significantly stronger inhibitory effect on cells depleted of TUTase | 
CC(C)C[C@H](NC(=O)[C@H](Cc1ccccc1)NC(=O)c1cnccn1)B(O)O [bortezomib] |  | stronger in the TUTase knockout cells
N.N.[Cl][Pt][Cl] [cisplatin] | only 5-fluorouracil (5-FU) yielded a differential dose-dependent response | 
COc1cccc2c1C(=O)c1c(O)c3c(c(O)c1C2=O)C[C@@](O)(C(=O)CO)C[C@@H]3O[C@H]1C[C@H](N)[C@H](O)[C@H](C)O1 [doxorubicin] | only 5-fluorouracil (5-FU) yielded a differential dose-dependent response | 
COc1cc([C@@H]2c3cc4c(cc3[C@@H](O[C@@H]3O[C@@H]5CO[C@@H](C)O[C@H]5[C@H](O)[C@H]3O)[C@H]3COC(=O)[C@H]23)OCO4)cc(OC)c1O [etoposide] | only 5-fluorouracil (5-FU) yielded a differential dose-dependent response | 
